Laboratory results reported in US9598441B2, “Therapeutic compounds and methods” (Wayne State University, priority 2011, dated 2017).

Columns and labels:
[1] = system: caspase-3, caspase-8, caspase-9, caspase-2; test: ApoAlert Caspase profiling plate, fluorescence-based; assay type: cell-based
Experimental: For apoptosis ELISA assay, 4−5×10^2 cells were seeded in 96-well plates and treated essentially as indicated in the MTT assay above. Untreated as well as treated cells were lysed, and levels of mono and oligo-nucleosomal DNA fragments in the lysates were determined by measuring optical density of each sample at 405 nm and 495 nm wavelengths. […] For TUNEL labeling, the cells were treated with various agents, fixed, labeled and photographed essentially as detailed in immuno-localization protocols described before (Zhang, L., Levi, E., Majumder, P., Yu, Y., Aboukameel, A., Du, J., Xu, H., Mohammad, R. M., Hatfield, J. S., Wali, A., Adsay, V., Majumdar, A. P. N., and Rishi, A. K. (2007) Mol. Cancer. Ther. 6(5), 1661-1672). […] Cell lysates derived from vehicle DMSO (Control) or CFM-4-treated cells were added to the wells that had immobilized fluorogenic caspase-3, caspase-8, caspase-9, or caspase-2 substrates. The fluorescence released from the activated caspase-dependent cleavage of respective substrate was detected by a plate reader at the excitation and emission wavelengths of 380 nm and 460 nm, respectively.

[2] = system: CARP-1, cyclin B1, Cdc20, Cdh1, APC-2, CDKIs, caspases, p38, Bcl2 family proteins; test: Western blot of protein levels in treated cells; assay type: cell-based
Experimental: (§1) Logarithmically growing cells were either untreated or treated with different agents for various time periods. The cells were lysed to prepare protein extracts. IP was carried out by incubating approximately 1 mg of the protein lysate with appropriate antibodies, and the immunoprecipitates or cell lysates were then electrophoresed on 9-12% SDS-polyacrylamide gels, and transferred to nitrocellulose membranes. The membranes were subsequently probed with various antibodies to determine expression/presence of the corresponding proteins. The cell growth inhibition was assessed by using MTT assay. Briefly, MTT (3-[4,5-Dimethylthiazol-2-yl]-2,5diphenyltetrazolium bromide) was dissolved in sterile 1×PBS to prepare a stock solution of 5 mg/ml. The solution was subsequently filtered through 0.2 μm filter and stored at 2-8° C. 4−5×10^2 cells were seeded in 96-well plates. After 72 h incubation with or without different agents, MTT stock solution was added to each culture being assayed to equal one tenth the original culture volume, followed by incubation of cells at 37° C. for another 2 h. At the end of the incubation, the media was removed and cells were treated with 100-200 μl of DMSO to solubilize the dye. The assessment of the live cells was derived by measuring the absorbance of the converted dye at wavelength of 570 nm.

Gst-APC-2 (685-754) = biological target: T1, Gst-APC-2 (685-754) (Homo sapiens, UniProt Q9UJX6); test: In vitro binding of SMIs, immobilized Gst-APC-2 pre-incubated with CFM; settings: WB with anti HA-tag
T1 construct: immobilizing the Gst-APC-2 (685-754) peptide with Gst-beads; made in house; host or cells: E. coli BL-21 (DE3)
Experimental: (§2) The CFM-4 and 5 were separately dissolved in DMSO to obtain a stock of 20-50 mM. For in vitro binding experiments we utilized affinity-purified Gst-APC-2 (685-754) and His-TAT-HA-tagged A-epitope (WT) peptide. Ten nanogram of the His-TAT-HA-tagged A-epitope (WT) peptide was first allowed to bind with Ni-NTA beads (ProBond, InVitrogen), and then the reaction was incubated with DMSO (control), 100 μM CFM-4, or 100 μM CFM-5 for 30 min at RT. The reactions were then subjected to three washes with the binding buffer, followed by incubation with 10 ng of affinity-purified Gst-APC-2 (685-754) peptide for 30 min at RT. The reactions were washed again for three times with PBS, eluted and analyzed on a SDS-PAGE followed by western blotting (WB) with anti-Gst antibodies. A similar strategy was performed by immobilizing the Gst-APC-2 (685-754) peptide with Gst-beads. The beads were washed, incubated with DMSO or the CFMs, and the reactions washed again. The reactions were then allowed to incubate with affinity purified A-epitope peptide, and the complexes analyzed by SDS-PAGE followed by WB with anti HA-tag antibodies.

[3] = biological target: T2, His-TAT-HA-tagged A-epitope peptide [CARP-1 (951-980)] (Homo sapiens, UniProt Q8IX12); test: In vitro binding of SMIs, immobilized A-epitope peptide pre-incubated with CFM; settings: 100 μM, 30 min at RT; WB with anti-Gst
T2 construct: wild-type or scrambled His-TAT-HA-CARP-1 (951-980) peptides; made in house; host or cells: E. coli BL-21 (DE3)
T2 sequence (Q8IX12 951-980 limits assumed): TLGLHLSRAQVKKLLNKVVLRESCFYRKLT
Experimental: as §2

[4] = system: HBC cells transfected with scrambled, CARP-1 or Cdh1 SiRNAs; test: MTT assay in SiRNA-transfected cells; assay type: cell-based, human
Experimental: as §1
To test this possibility, cells were transfected with 100 nM each of the CARP-1 or the scrambled SiRNAs as detailed in methods. The SiRNA-transfected cells were then either untreated or treated with 20 μM CFM-4 for 24 h followed by determination of levels of CARP-1 and cyclin B1 proteins. […] In a separate experiment, cells were similarly transfected with CARP-1 SiRNA or scrambled SiRNAs followed by treatment with CFM-4 essentially as in FIG. 6A, and cell viabilities were determined by the MTT assay. […] In a separate experiment, cells were similarly transfected with Cdh1 SiRNA or scrambled SiRNAs followed by treatment with CFM-4 essentially as in FIG. 6C, and cell viabilities were determined by the MTT assay.

T1 sequence (Q9UJX6 685-754): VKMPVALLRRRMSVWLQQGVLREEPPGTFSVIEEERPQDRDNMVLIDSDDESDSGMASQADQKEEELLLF

SMILES: O=C1N(Cc2ccccc2Cl)c2ccccc2C12NN=C(c1ccccc1)S2 (stereo not shown) [CFM-4, 1-(2-chlorobenzyl)-5′-phenyl-3′H-spiro[indoline-3,2′-[1,3,4]thiadiazol]-2-one]
- activation of caspases (fluorescence-based quantitative assay) [1]: activation of caspases 3, 8, 9, and 2
- APC-2 levels (WB) [2]: unaffected
- Bax expression (WB) [2]: failed to stimulate Bax expression
- Cdc20 levels (WB) [2]: significantly reduced
- Cdh1 levels (WB) [2]: modest decline
- cleavage of caspases (WB) [2]: cleavage of caspases 9 and 8
- tBid levels (WB) [2]: modest increase in tBid levels
- CARP-1 levels (WB) ([2]; 50 nM velcade 6 h or 24 h, 20 μM CFM-4 24 h): robust increase in CARP-1 levels
- p38 activation (WB) ([2]; 20 μM, from 6 h, sustained through 24 h): activation (phosphorylation) of p38
- levels of p21WAF1/CIP1 and p27KIP1 CDKIs (WB) ([2]; 0.5-1.0 h exposure): elevated
- levels of p21WAF1/CIP1 and p27KIP1 CDKIs (WB) ([2]; 3 h and beyond): decline
- cyclin B1 levels (WB) ([2]; 6 h and subsequent treatment periods): depleted cyclin B1
- levels of BimEL (WB) ([2]; 12 h or 24 h treatments): declined significantly
- levels of Bims isoform (WB) ([2]; 12 h or 24 h treatments): concomitant increase
- levels of E2 ubiquitin ligase UbCH10 (WB) ([2]; alone or in combination with caspase inhibitors): not affected
- cleavage of PARP1 (WB) ([2]; cells transfected with scrambled SiRNAs): robust cleavage of PARP1
- levels of Bcl2, BclXL, Noxa, and Puma proteins (WB) ([2]; different cells): failed to modulate levels
- CARP-1 and cyclin B1 levels (WB) ([2]; drug (ADR or TAM)-resistant MCF-7 cells): elevated CARP-1 and reduced cyclin B1 levels
- cyclin B1 levels (WB) ([2]; prostate and pancreatic cancer cells): induced cyclin B1 loss
- CARP-1 levels (WB) ([2]; time course, 6 h and subsequent treatment periods): stimulated CARP-1 levels
- binding of immobilized Gst-APC-2 (685-754) with A-epitope peptide after pre-incubation with compound (Gst-APC-2 (685-754)): failed to abolish its binding
- binding of immobilized A-epitope peptide with Gst-APC-2 (685-754) after pre-incubation with compound [3]: abrogated its binding
- growth of cells transfected with scrambled SiRNAs (MTT) ([4]; 20 μM CFM-4, 24 h): suppressed growth
- growth inhibition in CARP-1 SiRNA-transfected cells (MTT) ([4]; CARP-1 knockdown, 20 μM CFM-4, 24 h): blocked CFM-4-dependent inhibition of cell growth
- growth inhibition in Cdh1 SiRNA-transfected cells (MTT) ([4]; Cdh1 knockdown): blocked CFM-4-dependent inhibition of HBC cell growth
